The source made the active and inactive calls. No cut-off for these calls is given here.
Tests used:
Aeromonas salmonicida = test: Antibacterial activity against Aeromonas salmonicida at 100 ug/disk by paper disk method; type: functional, organism-based
Staphylococcus aureus = test: Antibacterial activity against Staphylococcus aureus at 100 ug/disk by paper disk method; type: functional, organism-based

In the case of `C=C1CC[C@@H]2O[C@@]2(C)CC[C@@H]2/C(=C\C=C\C(C)C)COC(=O)[C@@H]12`, the Activity (Aeromonas salmonicida) is reported as “Active” and the Activity (Staphylococcus aureus) is reported as “Active”.
In the case of `CC(C)/C=C/C=C1/COC(=O)[C@@H]2[C@@H]1CC[C@@]1(C)C[C@]2(O)CC[C@@H]1O`, the Activity (Aeromonas salmonicida) is reported as “Active” and the Activity (Staphylococcus aureus) is reported as “Active”.
